Laboratory results as given in patent US20060155119A1, “Ascomycin crystalline forms and preparation thereof” (priority 2004, published 2006).

Assay: Storing crystalline Ascomycin Form A at 150° C. for 1 hour, solid form checked by PXRD/DSC
Format: physicochemical
Details: solid sample, initial PXRD form A, remark wraps over r7-r8: 'Remained crystalline'
Protocol: The crystalline forms of ascomycin, produced by the methods of the present invention can be analyzed by Powder X-ray diffraction (PXRD) was performed on an X-Ray powder diffractometer, ARL, θ-θ goniometer, Cu-tube, solid state detector with Peltier cooling. The sample holder was a round standard aluminum sample holder with round zero background. Scanning parameters: Range: 2-40 deg.2θ, Continuous Scan, Rate: 3 deg./min.
Ascomycin crystalline forms can also be analyzed by thermal analysis, which can be carried out by […] scanning calorimetry (DSC) and by thermogravimetric analysis (TGA). DSC thermograms can be obtained on a DSC822^e Mettler Toledo instrument (Advanced Instruments, San Juan, Puerto Rico). Sample weight: 3-5 mg; Heating rate: 10° C./min; Number of holes in the crucible: 3. TGA thermograms can be obtained on a Mettler TGA/SDTA 851 instrument (Advanced Instruments, San Juan, Puerto Rico) using a standard Allumina pan. Sample weight: 7-15 mg; Heating rate: 10° C./min.
Starting from Form A having the properties listed in Table 1, incubation at 150° C. for 1 hour produced Ascomycin Form C.

remarks after storing at 150° C. for 1 hour: Remained
Structure (SMILES): CC[C@@H]1/C=C(\C)C[C@H](C)C[C@H](OC)[C@H]2O[C@@](O)(C(=O)C(=O)N3CCCC[C@H]3C(=O)O[C@H](/C(C)=C/[C@@H]3CC[C@@H](O)[C@H](OC)C3)[C@H](C)[C@@H](O)CC1=O)[C@H](C)C[C@@H]2OC [Form A, Ascomycin]
